Tests used:
[1] = Fe(II) oxidation assay (inhibition of Fe(II)-autooxidation); assay type: biochemical; details: for FE(II)-AUTOXIDATION Inhibition, %: synaptosomal membrane/lipid fractions, 50 μM Fe(II) sulfate, pH 7.4, 10 min at 37° C., test concentration not given
Source text: The testing of the substances for Fe(II)-autooxidation inhibition activity occurs according to B. Ruiz-Larrea, et al, “Antioxidant effects of estradiol and 2-hydroxyestradiol on iron-induced lipid peroxidation of rat liver microsomes”, Steroids 39 (1994), pp. 383-388 and B. Ruiz-Larrea, et al, Effects of estrogens on the redox chemistry of iron: “A possible mechanism of the antioxidant action of estrogens”, Steroids 60 (1995), pp. 780-783.
All autooxidation experiments involving the Fe(II) ions were performed in aqueous solutions, which contain synaptosomal membrane/lipid fractions. A 1.0 ml biological sample containing 50 μM Fe(II) sulfate, 45 mM tris-HCl buffer (pH=7.4) and 0.08 mg of synaptosomal proteins were incubated with test substances dissolved in ethanol (10% v/v) for 10 min in a water bath at 37° C., subsequently stopped by addition of 50 μL of a 0.32 M 1,10-phenanthrolene solution and the extinction of Fe(II) phenanthroline complexes at 510 nm was measured.
All other biochemicals are of the highest analytical grade of purity. The test substances are preferably made in the form of a 20 millimolar stock solution in 95% ethanol and diluted immediately prior to the start of the experiment.

[2] = Fe(III) reduction assay (stimulation of Fe(III) reduction); assay type: biochemical; details: 25 μM Fe(III) chloride, tris-HCl pH 7.4; test concentration not given
Source text: The testing of the substances for their ability to stimulate Fe(III) reduction occurs according to B. Ruiz Larrea, et al, “Antioxidant effects of estradiol and 2-hydroxyestradiol on iron-induced lipid peroxidation of rat liver microsomes”, Steroids 39 (1994), p. 383-388 and B. Ruiz-Larrea, et al, Effects of estrogens on the redox chemistry of iron: A possible mechanism of the antioxidant action of estrogens”, Steroids 60 (1995), pp. 780 to 783.
The biological sample contained the following components: 25 μM Fe(III) chloride in 150 mM tris-HCl (pH=7.4), 15 mM 1,10-phenanthrolene and the substance to be tested, dissolved in an ethanol vehicle. The formation of the Fe(II) phenanthroline complex is registered spectrophotometrically at 510 nm.

[3] = tested on: vaginal epithelium of ovariectomized rats; test: Allen-Doisy test, estrogenicity in vivo in ovariectomized rats (vaginal smears); design: species or system rat; details: one-time subcutaneous administration d1, ovariectomized rats
Experimental: Estrogens lead to characteristic changes in vaginal epithelium in ovariectomized rodents. The upper cells become heavily cornified and a strong proliferation occurs. These changes in cell formation were determined by vaginal smears. The occurrence of cornified anuclear epithelial cells is an expression of estrogen-specific activity (Allen-Doisy Test).
Subcutaneous Testing for Estrogen Activity
Estrogens lead to characteristic changes in vaginal epithelium with ovariectomized rodents. Strong proliferation and cornification of the upper cell layer occurs. These changes are detectable in cells from vaginal smears. The occurrence of cornified anuclear epithelial cells is an expression of an estrogen-specific activity—i.e. the Allen-Doisy Test—according to R. J. Dorfman, (Hrsg.), Methods in Hormone Research, p. 72 ff, Academic Press, New York, 1969.
White Wistar Rats (origin: Shoe: WIST=Mol : WIST, n=48) that weighed from 180 to 200 g were supplied, divided randomly into trial groups (n=3 to 5 animals/group), habituated in supporting conditions for about one week and subsequently ovariectomized under anesthesia with ursotami.
The test substances for subcutaneous and oral administration were formulated in benzyl benzoate/castor oil (1+4) or in polyoxyethylene(50-stearate) by Myrj® (85 mg polyoxyethylene(50-stearate) in 100 ml 0.9% w/v sodium chloride solution).
The administered volume amounted to 0.2 ml/animal.
Rats with a weight of about 200 g were ovariectomized under anesthesia with ursotami and about 2 weeks after that the animal was tested in the presence of a castrated vaginal cell formation (dioestrus). After that 0.2 ml per animal of the test substance was administered once subcutaneously. Vaginal smears were taken 24, 48, 54 and 72 hours after the one-time administration of the test substance and subsequent oestrus stages were evaluated(dioestrus=1; proestrus=2; oestrus=3; metoestrus=4). The experiment was ended after four days according to the standard ALLEN-DOISY test. The animals were sacrificed under anesthesia in ether by dislocation of the neck vertebral column, the uterus was prepared and its moist weight (without secretion) was measured. The suprarenal capsules were also prepared and weighed.
The results of the colpotropic test—the occurrences of oestral vaginal cell forms as reagents per doses group and the uteropic activity(uterus weight) were measured. The average of the uterus weight of the test groups was compared with the average of the vehicular groups and, if necessary, the significance of the differences was determined by a t-test according to STUDENT. The moist weight of the suprarenal capsules of all groups was also determined.

[4] = tested on: Synaptosomal membrane fractions (rat); details: for IC50: read-out: LIPID PEROXIDATION INHIBITION (IC50 μMol/l), synaptosomal membrane fractions (rat), 30 min at 37° C.; for antioxidative action in lipid peroxidation (in words): compared with 17α-estradiol and 17β-estradiol
[5] = biological target: T1, estrogen receptor (Homo sapiens, UniProt P03372); test: Relative binding affinity to estrogen receptor sites; details: relative to 17β-estradiol = 100
T1 sequence (P03372 1-595): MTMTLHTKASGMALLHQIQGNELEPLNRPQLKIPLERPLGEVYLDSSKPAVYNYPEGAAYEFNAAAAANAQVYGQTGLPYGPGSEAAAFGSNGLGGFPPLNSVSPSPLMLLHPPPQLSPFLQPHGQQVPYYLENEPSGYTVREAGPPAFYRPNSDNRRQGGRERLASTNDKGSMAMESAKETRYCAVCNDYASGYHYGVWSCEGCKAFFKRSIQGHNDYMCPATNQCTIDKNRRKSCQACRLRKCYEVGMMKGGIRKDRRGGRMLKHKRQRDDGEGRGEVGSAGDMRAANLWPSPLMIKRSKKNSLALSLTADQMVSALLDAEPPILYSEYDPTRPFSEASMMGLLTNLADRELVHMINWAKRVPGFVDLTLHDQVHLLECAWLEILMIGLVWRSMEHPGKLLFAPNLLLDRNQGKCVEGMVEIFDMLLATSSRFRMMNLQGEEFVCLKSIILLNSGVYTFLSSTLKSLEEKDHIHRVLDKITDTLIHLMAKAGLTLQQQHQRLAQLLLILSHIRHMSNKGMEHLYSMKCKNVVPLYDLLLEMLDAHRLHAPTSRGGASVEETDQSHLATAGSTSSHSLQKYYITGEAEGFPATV

[6] = biological target: T1, estrogen receptor; details: background; natural 17β-estradiol = 100%; cited from earlier work
[7] = background statement; cited from earlier work

| SMILES | FE(II)-AUTOXIDATION Inhibition, % [1] | FE(III)-REDUCTION Stimulation, % [2] | effect on the Fe(II)-autooxidation process (in words) [1] | IC50 [4] [µmol/L] | further results |
| --- | --- | --- | --- | --- | --- |
| C[C@]12CC[C@@H]3c4cc(O)c(O)cc4CC[C@H]3[C@@H]1CC[C@@H]2O [2-hydroxy-17β-estradiol] | 64.20% | 35.26% |  |  |  |
| C[C@]12CC[C@@H]3c4ccc(O)c(O)c4CC[C@H]3[C@@H]1CC[C@H]2O [4-hydroxy-17α-estradiol] | 59.51% | 32.71% |  |  |  |
| C[C@]12CC[C@@H]3c4ccc(O)cc4CC[C@H]3[C@@H]1CC[C@H]2O [17α-estradiol] | ≦1% | ≦1% | do not or do not substantial change | 8.9 | Allen-Doisy Test, flaking, d1-d4 vaginal scale stage 3 (reagent/group) ([3]; 10 μg/animal): 0/6; Allen-Doisy Test, flaking, d1-d4 vaginal scale stage 3 (reagent/group) ([3]; 100 μg/animal): 6/6 |
| C[C@]12CC[C@@H]3c4ccc(O)cc4CC[C@H]3[C@@H]1CC[C@@H]2O [17β-estradiol] | ≦1% | ≦1% | do not or do not substantial change | 12.4 | Allen-Doisy Test, flaking, d1-d4 vaginal scale stage 3 (reagent/group) ([3]; 0.03 μg/animal): 1/5; Allen-Doisy Test, flaking, d1-d4 vaginal scale stage 3 (reagent/group) ([3]; 0.1 μg/animal): 5/5 |
| CN(C)c1ccc(CC2(O)CCC3C4CCc5cc(O)ccc5C4=CCC32C)cc1 (stereo not drawn) [J 844, 17α-4′-dimethylamino-phenylmethyl-estra-1,3,5(10),9(11)-tetraen-3,17-diol] |  |  |  |  | relative binding affinity (% binding to estrogen receptor) [5]: 0.7%; binding affinity to estrogen receptor sites [6]: less than 1% |
| COc1ccc2c(c1)CC[C@@H]1[C@@H]2CC[C@@]2(C)[C@H]1CC[C@@]2(O)Cc1ccc(N(C)C)cc1 [J 848, 3-methoxy-17α-4′-dimethylamino-phenylmethyl-estra-1,3,5(10)-trien-17-ol] |  |  |  |  | Allen-Doisy Test, flaking, d1-d4 vaginal scale stage 3 (reagent/group) ([3]; 30 μg/animal): 0/5; Allen-Doisy Test, flaking, d1-d4 vaginal scale stage 3 (reagent/group) ([3]; 300 μg/animal): 2/5; estrogen activity in vivo [7]: high estrogen activity |
| C[C@]12CC[C@H]3c4ccc(O)cc4CC[C@@H]3[C@H]1CC[C@H]2O [J 855, 8α, 9β, 14β-estra-1,3,5(10)-trien-3,17α-diol] |  |  |  |  | Allen-Doisy Test, flaking, d1-d4 vaginal scale stage 3 (reagent/group) ([3]; 1000 μg/animal): 5/5; Allen-Doisy Test, flaking, d1-d4 vaginal scale stage 3 (reagent/group) ([3]; 10000 μg/animal): 5/5 |
| Cc1ccc(O)c2c1CC[C@@H]1[C@@H]2CC[C@]2(C)[C@@H](O)CC[C@@H]12 [J 1178, 4-methyl-estra-1,3,5(10)-trien-1,17β-diol] | 22.26% | 19.23% | have the ability to inhibit the Fe(II)-autooxidation process | 1.7 | relative binding affinity (% binding to estrogen receptor) [5]: 0.04%; Allen-Doisy Test, flaking, d1-d4 vaginal scale stage 3 (reagent/group) ([3]; 1000 μg/animal): 0/5; Allen-Doisy Test, flaking, d1-d4 vaginal scale stage 3 (reagent/group) ([3]; 10000 μg/animal): 1/5; antioxidative action in lipid peroxidation (in words) [4]: considerably stronger antioxidative action |
| Cc1ccc(O)c2c1CC[C@@H]1[C@@H]2CC[C@]2(C)[C@H](O)CC[C@@H]12 [J 1179, 4-methyl-estra-1,3,5(10)-trien-1,17α-diol] | 26.07% | 21.41% | have the ability to inhibit the Fe(II)-autooxidation process | 1.94 | relative binding affinity (% binding to estrogen receptor) [5]: <0.03%; Allen-Doisy Test, flaking, d1-d4 vaginal scale stage 3 (reagent/group) ([3]; 10000 μg/animal): 0/5; antioxidative action in lipid peroxidation (in words) [4]: considerably stronger antioxidative action |
| Cc1cc(C(C)(C)C)c(O)c(C(C)(C)C)c1 [butyrohydroxytoluene (BHT), butyrohydroxytoluene] |  |  |  | 0.95 |  |
| Cc1c(C)c2c(c(C)c1O)CC[C@@](C)(CCC[C@H](C)CCC[C@H](C)CCCC(C)C)O2 [α-tocopherol (Vitamin E), α-tocopherol] |  |  |  | 117 |  |

Reference: patent US6436917B1, “Non-estrogenic estradiol derivative compounds with anti-oxidative activity” (Jenapharm GmbH & Co. KG, priority 1997, dated 2002)
